# Measured values as given in US20220128542A1, “TREATMENT EFFICIENCY EVALUATION” (TX MEDIC AB, priority 2019, published 2022).
# Marks after values point to notes of the source that are not given here.
# Tested on: brain of rats subjected to severe traumatic brain injury (sTBI)
# Assay: HPLC of free amino acids and amino group containing compounds in brain after sTBI (Example 1)
# Format: in vivo, rat
# Description: They were divided into three groups:
# 1) n=6 animals subjected to sTBI, with drug administration after 30 minutes and sacrifice at 2 days post-TBI (Acute phase 1)
# 2) n=6 animals subjected to sTBI, with drug administration after 30 minutes and sacrifice at 7 days post-TBI (Acute phase 2).
# 3) n=6 animals subjected to sTBI, with drug administration after 3 days and sacrifice at 7 days post-TBI (Chronic phase).
# The drug treatment was a subcutaneous injection of 0.5 ml of LMW-DS (15 mg/kg) and administered according to the aforementioned schematic protocol.
# After the wet weight (w.w.) determination, tissue preparation was affected as previously disclosed (Tavazzi et al., Neurosurgery. 2005; 56: 582-589; Vagnozzi et al., Neurosurgery. 2007; 61: 379-388; Tavazzi et al., Neurosurgery. 2007; 61: 390-395; Amorini et al., J Cell Mol Med. 2017; 21: 530-542.). Briefly, whole brain homogenization was performed with 7 ml of ice-cold, nitrogen-saturated, precipitating solution composed by CH3CN+10 mM KH2PO4, pH 7.40, (3:1; v:v), and using an Ultra-Turrax set at 24,000 rpm/min (Janke & Kunkel, Staufen, Germany). After centrifugation at 20,690×g, for 10 min at 4° C., the clear supernatants were saved, pellets were supplemented with 3 ml of the precipitating solution and homogenized again as described above. A second centrifugation was performed (20,690×g, for 10 min at 4° C.), pellets were saved, supernatants combined with those previously obtained, extracted by vigorous agitation with a double volume of HPLC-grade CHCl3 and centrifuged as above. The upper aqueous phases containing water-soluble low-molecular weight compounds were collected, subjected to chloroform washings for two more times (this procedure allowed the removal of all the organic solvent and of any lipid soluble compound from the buffered tissue extracts), adjusted in volumes with 10 mM KH2PO4, pH 7.40, to have ultimately aqueous 10% tissue homogenates and saved at −80° C. until assayed.
# The simultaneous determination of primary free amino acids (FAA) and amino group containing compounds (AGCC) (listed below) was performed using the precolumn derivatization of the sample with a mixture of Ortho-phthalaldehyde (OPA) and 3-Mercaptopropionic acid (MPA), as described in detail elsewhere (Amorini et al., J Cell Mol Med. 2017; 21: 530-542; Amorini et al., Mol Cell Biochem. 2012; 359: 205-216). […] The automated precolumn derivatization of the samples (15 μl) with OPA-MPA was carried out at 24° C. and 25 μl of the derivatized mixture were loaded onto the HPLC column (Hypersil C-18, 250×4.6 mm, 5 μm particle size, thermostated at 21° C.) for the subsequent chromatographic separation. In the case of glutamate, deproteinized brain extracts were diluted 20 times with HPLC-grade H2O prior to the derivatization procedure and subsequent injection. Separation of OPA-AA and OPA-AGCC was carried out at a flow rate of 1.2 ml/min using two mobile phases (mobile phase A=24 mmol/l CH3COONa+24 mmol/l Na2HPO4+1% tetrahydrofurane+0.1% trifluoroacetic acid, pH 6.5; mobile phase B=40% CH3OH+30% CH3CN+30% H2O), using an appropriate step gradient (Amorini et al., J Cell Mol Med. 2017; 21: 530-542; Amorini et al., Mol Cell Biochem. 2012; 359: 205-216).
# Assignment and calculation of the OPA-AA and OPA-AGCC in chromatographic runs of whole brain extracts were carried out at 338 nm wavelengths by comparing retention times and areas of peaks with those of peaks of chromatographic runs of freshly-prepared ultra-pure standard mixtures with known concentrations. […]
# [1] = Acute phase 1: 15 mg/kg s.c. 30 min post-sTBI, sacrifice day 2
# [2] = Acute phase 2: 15 mg/kg s.c. 30 min post-sTBI, sacrifice day 7
# [3] = Chronic phase: 15 mg/kg s.c. 3 days post-sTBI, sacrifice day 7
substance,measurement,setting,value
sodium salt of dextran sulfate [LMW-DS],effect on sTBI-induced increase in glutamate (GLU),15 mg/kg s.c. early post-injury (30 min following sTBI),remarkable inhibition
same,effect on glutamate excitotoxicity marker,15 mg/kg s.c. injected at 3 days after sTBI,no efficacy
same,ALA cerebral concentration,[1],0.50 ± 0.12^a μmol/g (w.w.)
same,ARG cerebral concentration,[1],"0.13 ± 0.02^b, d μmol/g (w.w.)"
same,ASN cerebral concentration,[1],0.12 ± 0.02^i μmol/g (w.w.)
same,ASP cerebral concentration,[1],"2.40 ± 0.56^d, i μmol/g (w.w.)"
same,CITR cerebral concentration,[1],0.018 ± 0.004 µmol/g (w.w.)
same,GABA cerebral concentration,[1],1.43 ± 0.25^a μmol/g (w.w.)
same,GLN cerebral concentration,[1],4.78 ± 1.09^a μmol/g (w.w.)
same,GLU cerebral concentration,[1],9.81 ± 1.66^i μmol/g (w.w.)
same,GLY cerebral concentration,[1],"0.83 ± 0.25^a, c μmol/g (w.w.)"
same,HIS cerebral concentration,[1],0.068 ± 0.015^b μmol/g (w.w.)
same,ILE cerebral concentration,[1],0.038 ± 0.007 µmol/g (w.w.)
same,L-Cystat cerebral concentration,[1],"0,185 ± 0.031^b, c, i μmol/g (w.w.)"
same,LEU cerebral concentration,[1],"0.021 ± 0.005^a, c μmol/g (w.w.)"
same,LYS cerebral concentration,[1],"0.236 ± 0.057^b, d, h μmol/g (w.w.)"
same,MET cerebral concentration,[1],"0.016 ± 0.005^d, j μmol/g (w.w.)"
same,ORN cerebral concentration,[1],0.014 ± 0.007 µmol/g (w.w.)
same,PHE cerebral concentration,[1],"0.031 ± 0.011^b, d μmol/g (w.w.)"
same,SAH cerebral concentration,[1],"0.033 ± 0.008^b, c, j μmol/g (w.w.)"
same,SER cerebral concentration,[1],0.88 ± 0.25^a μmol/g (w.w.)
same,TAU cerebral concentration,[1],4.86 ± 0.85^b μmol/g (w.w.)
same,THR cerebral concentration,[1],0.92 ± 0.29^a μmol/g (w.w.)
same,TRP cerebral concentration,[1],"0.030 ± 0.007^b, dg, i μmol/g (w.w.)"
same,TYR cerebral concentration,[1],0.15 ± 0.03 µmol/g (w.w.)
same,VAL cerebral concentration,[1],0.042 ± 0.011 µmol/g (w.w.)
same,ALA cerebral concentration,[2],"0.52 ± 0.24^a, e μmol/g (w.w.)"
same,ARG cerebral concentration,[2],0.16 ± 0.03 µmol/g (w.w.)
same,ASN cerebral concentration,[2],0.13 ± 0.03^i μmol/g (w.w.)
same,ASP cerebral concentration,[2],"2.94 ± 0.98^f, j μmol/g (w.w.)"
same,CITR cerebral concentration,[2],0.018 ± 0.008 µmol/g (w.w.)
same,GABA cerebral concentration,[2],1.60 ± 0.24^a μmol/g (w.w.)
same,GLN cerebral concentration,[2],3.66 ± 0.41 µmol/g (w.w.)
same,GLU cerebral concentration,[2],"9.93 ± 1.56^e, i μmol/g (w.w.)"
same,GLY cerebral concentration,[2],"0.71 ± 0.16^f, i μmol/g (w.w.)"
same,HIS cerebral concentration,[2],0.055 ± 0.019 µmol/g (w.w.)
same,ILE cerebral concentration,[2],0.048 ± 0.017^a μmol/g (w.w.)
same,L-Cystat cerebral concentration,[2],"0.173 ± 0.038^b, f, i μmol/g (w.w.)"
same,LEU cerebral concentration,[2],0.018 ± 0.004 µmol/g (w.w.)
same,LYS cerebral concentration,[2],"0.32 ± 0.04^a, e, i μmol/g (w.w.)"
same,MET cerebral concentration,[2],"0.022 ± 0.006^b, e, i μmol/g (w.w.)"
same,ORN cerebral concentration,[2],0.011 ± 0.005 µmol/g (w.w.)
same,PHE cerebral concentration,[2],0.028 ± 0.010 µmol/g (w.w.)
same,SAH cerebral concentration,[2],"0.026 ± 0.010^f, i μmol/g (w.w.)"
same,SER cerebral concentration,[2],0.71 ± 0.28^b μmol/g (w.w.)
same,TAU cerebral concentration,[2],3.80 ± 1.19 µmol/g (w.w.)
same,THR cerebral concentration,[2],0.66 ± 0.23 µmol/g (w.w.)
same,TRP cerebral concentration,[2],0.015 ± 0.006 µmol/g (w.w.)
same,TYR cerebral concentration,[2],"0.172 ± 0.046^b, f μmol/g (w.w.)"
same,VAL cerebral concentration,[2],0.057 ± 0.017 µmol/g (w.w.)
same,ALA cerebral concentration,[3],"0.57 ± 0.28^a, e μmol/g (w.w.)"
same,ARG cerebral concentration,[3],0.14 ± 0.02 µmol/g (w.w.)
same,ASN cerebral concentration,[3],0.18 ± 0.02^a μmol/g (w.w.)
same,ASP cerebral concentration,[3],"4.46 ± 0.70^a, f μmol/g (w.w.)"
same,CITR cerebral concentration,[3],0.020 ± 0.006 µmol/g (w.w.)
same,GABA cerebral concentration,[3],1.85 ± 0.65^a μmol/g (w.w.)
same,GLN cerebral concentration,[3],3.98 ± 0.34 µmol/g (w.w.)
same,GLU cerebral concentration,[3],13.58 ± 1.28^a μmol/g (w.w.)
same,GLY cerebral concentration,[3],"1.05 ± 0.13^a, f μmol/g (w.w.)"
same,HIS cerebral concentration,[3],0.047 ± 0.021 µmol/g (w.w.)
same,ILE cerebral concentration,[3],0.041 ± 0.016^b μmol/g (w.w.)
same,L-Cystat cerebral concentration,[3],"0.26 ± 0.05^a, f μmol/g (w.w.)"
same,LEU cerebral concentration,[3],"0.024 ± 0.032^b, f μmol/g (w.w.)"
same,LYS cerebral concentration,[3],0.179 ± 0.036 µmol/g (w.w.)
same,MET cerebral concentration,[3],0.009 ± 0.004^b μmol/g (w.w.)
same,ORN cerebral concentration,[3],"0.017 ± 0.009^a, e μmol/g (w.w.)"
same,PHE cerebral concentration,[3],0.033 ± 0.011^b μmol/g (w.w.)
same,SAH cerebral concentration,[3],0.050 ± 0.013^a μmol/g (w.w.)
same,SER cerebral concentration,[3],"0.93 ± 0.27^a, e μmol/g (w.w.)"
same,TAU cerebral concentration,[3],4.49 ± 0.43^a μmol/g (w.w.)
same,THR cerebral concentration,[3],"0.75 ± 0.24^a, e μmol/g (w.w.)"
same,TRP cerebral concentration,[3],0.012 ± 0.007 µmol/g (w.w.)
same,TYR cerebral concentration,[3],0.21 ± 0.05^f μmol/g (w.w.)
same,VAL cerebral concentration,[3],0.040 ± 0.016^b μmol/g (w.w.)
